Source: US20040162345A1, “Compounds with NEP/MP-inhibitory activity and uses thereof” (Solvay Pharmaceuticals GmbH, priority 2001, published 2004)
Entries after “also recorded” stand apart in the source; their conditions may differ. Like-named read-outs stand apart in the source and are kept apart here.

Tests used:
[1] = molecular target: T1, Recombinant human COOH-terminal His6-tagged endothelin converting enzyme-1 (Homo sapiens, UniProt P42892); test: ECE enzyme inhibition assay (17 amino acid truncated big endothelin-1, HPLC); assay type: biochemical
T1 construct: His6 (C); purchased Innogenetics, Ghent, Belgium; host or cells: Sf9 cells
T1 sequence (P42892 1-770): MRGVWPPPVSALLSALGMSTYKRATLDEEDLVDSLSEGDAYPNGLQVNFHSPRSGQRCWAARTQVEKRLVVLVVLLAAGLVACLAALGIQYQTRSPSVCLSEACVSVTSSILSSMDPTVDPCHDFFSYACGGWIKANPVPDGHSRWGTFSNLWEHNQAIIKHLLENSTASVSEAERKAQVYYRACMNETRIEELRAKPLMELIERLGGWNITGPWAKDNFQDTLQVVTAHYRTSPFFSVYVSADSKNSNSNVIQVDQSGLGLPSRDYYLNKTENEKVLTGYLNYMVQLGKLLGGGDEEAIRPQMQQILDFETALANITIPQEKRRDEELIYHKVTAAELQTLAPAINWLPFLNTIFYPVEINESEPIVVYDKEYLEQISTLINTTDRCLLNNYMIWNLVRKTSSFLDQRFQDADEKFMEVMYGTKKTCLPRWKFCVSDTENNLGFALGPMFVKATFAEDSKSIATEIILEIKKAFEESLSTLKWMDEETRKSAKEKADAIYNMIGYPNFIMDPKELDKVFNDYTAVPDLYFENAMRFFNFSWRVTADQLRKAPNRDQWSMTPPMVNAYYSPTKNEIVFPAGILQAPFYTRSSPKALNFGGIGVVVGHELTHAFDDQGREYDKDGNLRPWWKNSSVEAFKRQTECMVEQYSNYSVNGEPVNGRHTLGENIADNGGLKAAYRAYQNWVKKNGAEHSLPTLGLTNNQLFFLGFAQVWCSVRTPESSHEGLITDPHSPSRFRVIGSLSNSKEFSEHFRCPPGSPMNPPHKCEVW
Method: The enzyme inhibition assay comprised enzyme (2.8 μg), 5 μg substrate (moderately modified 17 amino acid truncated big endothelin-1), inhibitor at various final concentrations and 100 mM Tris-buffer (Tris-hydroxymethl-aminomethan/HCl, pH 7.0+150 mM NaCl) in a final volume of 100 μl. Pre-incubation of enzyme with inhibitor for 15 min at 37° C. was performed before substrate addition and incubation (60 min at 37° C.) for enzymatic hydrolysis. The enzymatic reaction was stopped by heating at 95° C. for 5 min. After centrifugation the supernatant was subjected to HPLC for separation of enzymatic hydrolysis products from undegraded substrate. % inhibition was calculated on the basis of peak areas for products and uncleaved substrate for the inhibited reaction in comparison to the control (without inhibitor). Blanks without enzyme, controls without inhibitor, samples with inhibitor solvent instead of the inhibitor and samples with a standard inhibitor were added to each assay run.

[2] = molecular target: Neutral endopeptidase (E.C. 3.4.24.11) (Sus scrofa, UniProt A0A4X1SQE6); test: NEP enzyme inhibition assay (methionin-enkephalin substrate, HPLC); assay type: biochemical, pig
Method: Neutral endopeptidase (E.C. 3.4.24.11) was prepared from pig kidney cortex according to the method of Gee et al. (Biochem J 1985 May 15;228(1):119-26) and purified as reported by Relton et al. (Biochem J 1983 Dec. 1;215(3):519-23). For the enzyme inhibition assay 10 ng of the purified enzyme, 20 μM substrate (methionin-enkephalin) and various inhibitor concentrations were used. The assay buffer was 50 mM Tris-(hydroxymethyl)-aminomethan/HCl pH 7.4, the total assay volume was 100 μl. After a preincubation period of 5 min of enzyme and inhibitor, the substrate was added and subsequently a second incubation phase for enzyme induced substrate hydrolysis at 37° C. for 30 min was initiated. The enzymatic reaction was stopped by heating at 95° C. for 5 min. After centrifugation the supernatant was subjected to HPLC. The products of enzymatic substrate hydrolysis were separated from the native substrate by HPLC technique and the inhibitor potency calculated by comparing the peak areas of the products with the peak area of native substrate for both, the samples with and without inhibitor (control). Blanks without enzyme, controls without inhibitor, samples with inhibitor solvent instead of the inhibitor and samples with a standard inhibitor were added to each assay run.
(§1) Furthermore, the potency of metalloprotease inhibitor compounds and reference compounds to suppress the conversion of big-ET to ET-1 was examined as described in this example 7, using a labeled fluorescent big-ET-1 analog. The procedures applied in the enzyme assays are described above in the examples 4 with regard to IGS5, in example 5 with regard to NEP, and in example 6 with regard to ECE.

[3] = molecular target: T2, His6-tagged IGS5 ectodomain (Homo sapiens, UniProt Q495T6); test: IGS5 enzyme inhibition assay (fluorescence-quenched big-ET-1 analog, HPLC); assay type: biochemical; conditions: for IC50: conversion of labeled fluorescent big-ET-1 analog
T2 construct: Enzyme: IGS-5 (sol hu)(his)6; or: His6-tagged IGS5 ectodomain;; made in house; host or cells: Sf9 insect cells, recombinant baculovirus IGBV73, purified from culture supernatant
T2 sequence (Q495T6 49-779 limits assumed): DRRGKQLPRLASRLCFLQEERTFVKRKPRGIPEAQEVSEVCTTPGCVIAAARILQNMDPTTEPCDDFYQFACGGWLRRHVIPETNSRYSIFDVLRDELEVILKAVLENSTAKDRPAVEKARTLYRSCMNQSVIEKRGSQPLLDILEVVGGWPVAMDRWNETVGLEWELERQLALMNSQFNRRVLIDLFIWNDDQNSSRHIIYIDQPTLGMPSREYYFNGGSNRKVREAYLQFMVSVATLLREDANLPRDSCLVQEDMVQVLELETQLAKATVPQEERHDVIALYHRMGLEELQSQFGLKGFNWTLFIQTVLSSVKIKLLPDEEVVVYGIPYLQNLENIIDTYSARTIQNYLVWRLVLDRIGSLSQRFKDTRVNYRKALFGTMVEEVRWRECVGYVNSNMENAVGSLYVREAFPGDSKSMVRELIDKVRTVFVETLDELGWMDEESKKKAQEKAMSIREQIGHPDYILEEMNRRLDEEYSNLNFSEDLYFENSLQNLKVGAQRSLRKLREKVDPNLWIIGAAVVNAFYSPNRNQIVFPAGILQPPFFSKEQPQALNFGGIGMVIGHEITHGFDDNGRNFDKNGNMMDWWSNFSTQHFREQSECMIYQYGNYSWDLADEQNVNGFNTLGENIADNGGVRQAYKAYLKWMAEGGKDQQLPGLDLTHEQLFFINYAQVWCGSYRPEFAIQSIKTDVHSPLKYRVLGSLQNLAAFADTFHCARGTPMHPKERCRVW
Method: The enzymatic activity of IGS5 polypeptides of the invention was tested with regard to the metabolism of biologically active peptides. In particular it was tested whether these IGS5 polypeptides may act on a variety of vasoactive peptides known in the state of the art e.g. such like atrial natriuretic peptide (ANP), bradykinin, big-endothelin (big-ET-1), endothelin (ET-1), substance P and angiotensin-1. In the context of the present invention in particular it was tested whether the IGS5 ectodomain, which is a novel human metalloprotease, hydrolyzes said vasoactive peptides. For comparison the assay was also performed for a known member of the metalloprotease family which was described earlier as soluble secreted endopeptidase (SEP) by Emoto et al. (J. Biol. Chem., Vol. 274 (1999): pp. 32469-32477). Furthermore, it was tested whether the activity of IGS5 to convert a big-ET-1 analog (the so-called 17 aa big-ET-1) may be inhibited by reference compounds that are used to determine the inhibition properties with regard to enzymes having ECE and/or NEP-characteristics.
Enzyme: IGS-5 (sol hu)(his)6; or: His6-tagged IGS5 ectodomain;
stock solution: 53 μg/ml in 20 mM HEPES pH 7.2, 5% glycerol, 0.005% Tween20, 100 mM NaCl, purity >99%; storage at 4° C.
working solution: stock solution diluted with assay buffer to 10 μg/ml.
Substrate: Mca-Asp-Ile-Ala-Trp-Phe-Dpa-[…]COOH;
Fluorescence-quenched big-ET-1 analog;
Assay buffer: 100 mM Tris pH 7.0, 250 mM NaCl.
All test compounds were dissolved in DMSO at 10 mM and were further diluted with assay buffer.
A quantity of 70 μl of the assay buffer, of 10 μl enzyme working solution and of 10 μl test compound solution were mixed in an Eppendorf vial and preincubated at 37° C. for 15 minutes. Then, 10 μl substrate stock solution was added and the reaction mixture was incubated at 37° C. for 60 minutes to allow for enzymatic hydrolysis. Subsequently the enzymatic reaction was terminated by heating at 95° C. for 5 minutes. After centrifugation (Heraeus Biofuge B, 3 min) the supernatant was subjected to HPLC analysis.
In order to separate the remaining substrate from the cleavage products reversed phase HPLC technique was used with a CC 125/4 Nucleosil 300/5 C18 RP column and a CC 8/4 Nucleosil 100/5 C18 precolumn (commercially available from Macherey-Nagel, Düren, Germany). Thus, 60 μl of the reaction samples obtained in Example 7b were injected into the HPLC, and the column was eluted at a flow rate of 1 ml/min by applying the following gradient and solutions: […]
The increasing fluorescence signal of the HPLC-peak of the peptide with the unquenched Mca-fluorophor after hydrolysis was taken as the basis for any calculation.
This signal was compared for the samples with and without inhibitor and % inhibition was calculated on basis of the respective peak areas.
% inhib=100*(1−Ainhib/Acontrol)
All samples were run in duplicate and mean values were used.
as §1

[4] = system: patients with WHO grade I-II hypertension; test: Randomized, placebo-controlled double-blind 4-week trial in patients with hypertension; assay type: in vivo, human; conditions: 200 mg bid, ITT, last value under treatment
Method: (§2) To proof the concept of clinical efficacy and safety of compound Ia-2 in man, 6 clinical trials were conducted in healthy volunteers and 2 proof of concept trials were conducted in patients: One randomized, placebo-controlled double-blind trial in patients with hypertension (N=191) and one open, baseline controlled pilot trial in patients with congestive heart failure (N=29). […] In the Intent-to-treat patient population (ITT), office diastolic blood pressure versus placebo decreased by −6.9 mmHg (last value under treatment; p<0.001) and office systolic blood pressure versus placebo decreased by −9.2 mmHg (last value under treatment; p=0.003) at the highest dose investigated (200 mg bid).

[5] = system: healthy volunteers; test: Double-blind placebo-controlled clinical study, big-ET-induced pressure response; assay type: in vivo, human; conditions: thirteen healthy volunteers
Method: as §2

[6] = system: volunteers and patients; test: Clinical trials, plasma ANP and cGMP following oral dosing; assay type: in vivo, human
Method: as §2

[7] = system: patients with congestive heart failure; test: Open, baseline controlled pilot trial in patients with congestive heart failure; assay type: in vivo, human
Method: as §2

Sequence of Neutral endopeptidase (E.C. 3.4.24.11) (A0A4X1SQE6 entry or part of it): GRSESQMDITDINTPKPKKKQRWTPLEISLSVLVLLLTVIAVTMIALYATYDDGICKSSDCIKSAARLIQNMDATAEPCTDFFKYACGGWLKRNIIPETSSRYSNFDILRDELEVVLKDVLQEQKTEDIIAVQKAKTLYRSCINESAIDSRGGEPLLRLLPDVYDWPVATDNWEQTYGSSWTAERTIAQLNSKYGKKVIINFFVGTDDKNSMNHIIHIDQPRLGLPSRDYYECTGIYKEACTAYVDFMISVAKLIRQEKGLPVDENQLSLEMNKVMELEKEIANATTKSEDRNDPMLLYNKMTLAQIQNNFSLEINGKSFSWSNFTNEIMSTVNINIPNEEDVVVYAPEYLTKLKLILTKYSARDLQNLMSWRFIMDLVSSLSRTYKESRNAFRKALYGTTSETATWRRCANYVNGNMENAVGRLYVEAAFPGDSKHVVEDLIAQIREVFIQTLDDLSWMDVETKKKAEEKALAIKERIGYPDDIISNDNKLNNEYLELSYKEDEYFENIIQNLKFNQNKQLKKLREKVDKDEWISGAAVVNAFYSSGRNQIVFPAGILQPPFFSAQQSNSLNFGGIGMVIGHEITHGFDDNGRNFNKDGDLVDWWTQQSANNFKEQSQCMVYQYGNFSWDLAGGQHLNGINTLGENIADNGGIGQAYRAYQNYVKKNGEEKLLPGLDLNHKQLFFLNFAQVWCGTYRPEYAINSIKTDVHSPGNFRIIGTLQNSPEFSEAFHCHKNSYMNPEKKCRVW

Compound: O=C(O)C(Cc1ccc2c(c1)oc1ccccc12)NCP(=O)(O)O (centres unmarked) [CGS-35066]
- IC50 [1]: 5 nM
- IC50 ([2]; 20 μM methionin-enkephalin, read-out: NEP IC50): 42 nM
- inhibition of IGS5 activity (in words) [3]: Inhibition of IGS5 could be observed at higher concentrations only
- IC50 [3]: 1300 nM

Compound: O=C(O)CNC(=O)C(CS)Cc1ccccc1 (centres unmarked) [Thiorphan]
- IC50 [1]: > 10000 nM
- IC50 [2]: 2.4 nM
- inhibition of IGS5 activity (in words) [3]: no inhibition of IGS5; also recorded: do not affect the activity of IGS5
- IC50 [3]: > 1000 nM

Compound: CCOC(=O)[C@H](CCc1ccccc1)CC1(C(=O)N[C@H]2CCc3ccccc3N(CC(=O)O)C2=O)CCCC1 [compound Ia-2, (3S,2′R)-3-{1-[2′-(ethoxycarbonyl)-4′-phenylbutyl]-cyclopentane-1-carbonylamino}-2,3,4,5-tetrahydro-2-oxo-1H-1-benzazepine-1-acetic acid]
- office diastolic blood pressure versus placebo ([4]; p<0.001): −6.9 mmHg
- office systolic blood pressure versus placebo ([4]; p=0.003): −9.2 mmHg
- ANP levels [5]: clear dose related increase
- ET-1 levels [5]: did not increase
- big-ET levels ([5]; compared to placebo group): increased dose dependently
- big-ET-induced pressure response ([5]; versus placebo): dose-dependently inhibited
- plasma concentrations of ANP and its second messenger cGMP [6]: significantly increased and sustained
- change of plasma big-ET from baseline ([7]; 200 mg): +32.6%
- plasma levels of big-ET following administration ([7]; 200 mg, baseline 4.9 fmol/ml): 6.5 fmol/mL
- change of plasma big-ET from baseline ([7]; 400 mg): +56%
- plasma levels of big-ET following administration ([7]; 400 mg, baseline 2.3 fmol/ml): 3.5 fmol/mL
- IC50 [3]: 1.2 nM
